Blank lines part the entries; values can stand above or below the compound they belong to. Calls of active or inactive are those of the source.
Experiments:
[1] = biological target: T1, RNA-binding protein pos-1 (Caenorhabditis elegans, UniProt G5EF15); experiment: disruptors of C. elegans POS-1 RNA interaction – biochemical, fluorescence polarization, dose response (AID 1964);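 note: purified POS-1 fused to maltose binding protein made in E. coli; potency of compounds blocking POS-1 binding to fluorescent RNA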
T1 sequence (G5EF15 whole entry): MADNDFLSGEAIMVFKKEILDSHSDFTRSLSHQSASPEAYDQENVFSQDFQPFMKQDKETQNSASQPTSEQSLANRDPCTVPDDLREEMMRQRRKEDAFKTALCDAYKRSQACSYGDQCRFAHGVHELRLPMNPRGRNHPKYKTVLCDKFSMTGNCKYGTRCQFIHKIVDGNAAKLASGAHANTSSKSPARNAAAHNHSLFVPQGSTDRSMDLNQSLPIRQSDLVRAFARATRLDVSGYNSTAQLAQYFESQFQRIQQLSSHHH

[2] = biological target: T2, Zinc finger protein mex-5 (Caenorhabditis elegans, UniProt Q9XUB2); experiment: potency of MEX-5 RNA-binding blockers – biochemical, C. elegans, fluorescence polarization, dose response (AID 1960)
T2 sequence (Q9XUB2 whole entry): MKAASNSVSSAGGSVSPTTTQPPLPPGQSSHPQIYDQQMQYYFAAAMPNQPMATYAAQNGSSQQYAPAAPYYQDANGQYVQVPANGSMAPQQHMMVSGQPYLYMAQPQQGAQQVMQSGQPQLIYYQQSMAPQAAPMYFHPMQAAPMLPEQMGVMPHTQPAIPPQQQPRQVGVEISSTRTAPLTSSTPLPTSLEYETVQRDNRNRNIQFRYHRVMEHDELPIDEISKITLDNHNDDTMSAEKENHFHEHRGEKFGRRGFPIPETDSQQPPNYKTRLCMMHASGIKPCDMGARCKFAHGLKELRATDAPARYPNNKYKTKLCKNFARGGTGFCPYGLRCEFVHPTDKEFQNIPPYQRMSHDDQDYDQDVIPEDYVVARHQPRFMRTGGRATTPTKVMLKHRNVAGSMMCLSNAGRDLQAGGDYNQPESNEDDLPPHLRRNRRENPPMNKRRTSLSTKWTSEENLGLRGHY

[3] = biological target: T3, Intestinal-type alkaline phosphatase (Mus musculus, UniProt P24822); experiment: PubChem AID 488874; assay type: functional
T3 sequence (P24822 whole entry): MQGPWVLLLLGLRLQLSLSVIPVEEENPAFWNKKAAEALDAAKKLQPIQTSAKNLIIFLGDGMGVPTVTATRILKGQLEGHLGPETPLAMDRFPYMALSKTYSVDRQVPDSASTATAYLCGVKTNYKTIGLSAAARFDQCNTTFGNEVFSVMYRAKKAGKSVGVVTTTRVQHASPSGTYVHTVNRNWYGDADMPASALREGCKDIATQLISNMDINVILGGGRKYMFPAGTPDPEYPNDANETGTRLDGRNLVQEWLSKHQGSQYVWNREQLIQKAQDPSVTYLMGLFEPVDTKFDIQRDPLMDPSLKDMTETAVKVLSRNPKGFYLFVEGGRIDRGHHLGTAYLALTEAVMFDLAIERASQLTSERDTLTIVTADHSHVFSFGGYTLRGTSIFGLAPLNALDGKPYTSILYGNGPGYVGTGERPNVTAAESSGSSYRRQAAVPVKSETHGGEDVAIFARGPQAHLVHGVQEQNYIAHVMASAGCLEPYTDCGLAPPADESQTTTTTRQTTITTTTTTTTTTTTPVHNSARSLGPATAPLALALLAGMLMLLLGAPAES

[4] = biological target: T3, Intestinal-type alkaline phosphatase; experiment: PubChem AID 488875; assay type: functional
[5] = biological target: T4, Intestinal-type alkaline phosphatase (Homo sapiens, UniProt P09923); experiment: human intestinal alkaline phosphatase activators, dose response, biochemical, luminescence, uHTS hits (AID 463120); assay type: functional
T4 sequence (P09923 whole entry): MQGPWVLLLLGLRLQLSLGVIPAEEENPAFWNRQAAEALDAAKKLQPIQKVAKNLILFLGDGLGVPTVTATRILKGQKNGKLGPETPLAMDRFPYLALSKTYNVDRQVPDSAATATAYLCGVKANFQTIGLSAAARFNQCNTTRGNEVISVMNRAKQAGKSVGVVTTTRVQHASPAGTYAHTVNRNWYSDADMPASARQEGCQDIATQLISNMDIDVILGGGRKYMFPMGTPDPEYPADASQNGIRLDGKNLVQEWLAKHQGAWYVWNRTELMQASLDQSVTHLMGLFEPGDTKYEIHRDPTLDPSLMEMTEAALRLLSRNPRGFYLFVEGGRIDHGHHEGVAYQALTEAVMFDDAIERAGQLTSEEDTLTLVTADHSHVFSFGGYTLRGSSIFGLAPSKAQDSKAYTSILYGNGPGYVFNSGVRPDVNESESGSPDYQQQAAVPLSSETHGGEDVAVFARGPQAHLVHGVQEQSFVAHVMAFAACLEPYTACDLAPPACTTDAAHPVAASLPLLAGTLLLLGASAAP

[6] = biological target: T4, Intestinal-type alkaline phosphatase; experiment: activation of human intestinal alkaline phosphatase – biochemical, luminescent, uHTS hits, set 2, dose response (AID 488817); assay type: functional;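 note: potency of activators that raise enzyme activity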
[7] = biological target: T5, Alkaline phosphatase, tissue-nonspecific isozyme (Homo sapiens, UniProt P05186); experiment: activation of tissue-nonspecific alkaline phosphatase – biochemical, TNAP isozyme, human IAP uHTS hits, selectivity assay for human IAP activator project, dose response (AID 488886); assay type: functional;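 note: potency of compounds raising TNAP activity as a selectivity check on IAP activators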
T5 sequence (P05186 whole entry): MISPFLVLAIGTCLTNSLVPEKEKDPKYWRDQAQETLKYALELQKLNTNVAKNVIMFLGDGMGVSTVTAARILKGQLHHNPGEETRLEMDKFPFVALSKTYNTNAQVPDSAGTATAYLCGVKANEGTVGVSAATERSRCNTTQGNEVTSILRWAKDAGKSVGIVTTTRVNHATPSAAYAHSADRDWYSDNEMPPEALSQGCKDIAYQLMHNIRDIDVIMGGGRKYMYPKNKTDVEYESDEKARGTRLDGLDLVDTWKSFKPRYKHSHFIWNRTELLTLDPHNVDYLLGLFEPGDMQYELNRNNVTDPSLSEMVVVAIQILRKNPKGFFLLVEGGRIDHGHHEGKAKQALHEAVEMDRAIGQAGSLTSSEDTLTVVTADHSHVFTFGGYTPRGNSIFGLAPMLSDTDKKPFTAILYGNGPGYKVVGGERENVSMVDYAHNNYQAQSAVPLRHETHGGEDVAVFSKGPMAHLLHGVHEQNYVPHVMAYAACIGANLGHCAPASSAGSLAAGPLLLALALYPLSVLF

[8] = biological target: T6, Neuropeptides B/W receptor type 1 (Homo sapiens, UniProt P48145); experiment: Fluorescence-based dose response cell-based high throughput screening assay to identify antagonists of the G-protein coupled receptor 7 (GPR7). [Related pubchem assays: 1952 (Screening assay (GPR7 antagonists).), 1880 (Summary AID.)]; assay type: functional
T6 sequence (P48145 whole entry): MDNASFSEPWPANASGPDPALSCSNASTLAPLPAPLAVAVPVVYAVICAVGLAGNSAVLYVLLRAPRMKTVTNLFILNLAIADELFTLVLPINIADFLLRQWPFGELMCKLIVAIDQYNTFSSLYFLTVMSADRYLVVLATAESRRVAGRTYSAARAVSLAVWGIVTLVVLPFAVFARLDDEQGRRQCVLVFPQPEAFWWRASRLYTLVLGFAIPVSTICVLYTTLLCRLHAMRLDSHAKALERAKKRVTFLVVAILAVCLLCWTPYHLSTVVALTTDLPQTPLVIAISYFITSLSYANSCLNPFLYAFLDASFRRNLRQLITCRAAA

[9] = biological target: Melanin-concentrating hormone receptor 1 (Homo sapiens, UniProt Q99705); experiment: Fluorescence-based counterscreen for antagonists of the G-protein coupled receptor 7 (GPR7): cell-based high throughput dose response assay to identify antagonists of the melanin-concentrating hormone receptor 1 (MCHR1).; assay type: functional
Chain of Melanin-concentrating hormone receptor 1 (Q99705 whole entry): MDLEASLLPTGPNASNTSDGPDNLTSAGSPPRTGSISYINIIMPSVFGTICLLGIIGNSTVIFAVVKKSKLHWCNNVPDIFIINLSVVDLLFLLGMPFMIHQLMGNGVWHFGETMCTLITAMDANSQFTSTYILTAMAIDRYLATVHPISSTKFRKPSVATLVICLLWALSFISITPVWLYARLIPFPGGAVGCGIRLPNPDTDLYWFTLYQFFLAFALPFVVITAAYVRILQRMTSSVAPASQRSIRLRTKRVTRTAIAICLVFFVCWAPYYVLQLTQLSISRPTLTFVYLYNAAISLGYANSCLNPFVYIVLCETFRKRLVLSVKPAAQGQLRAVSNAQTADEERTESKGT

[10] = biological target: T7, Eukaryotic translation initiation factor 4H (Homo sapiens, UniProt Q15056); experiment: eIF4H binding inhibition – biochemical, uHTS, fluorescence polarization, translation initiation inhibitor project, primary screen (AID 2012)
[11] = biological target: T8, Polyadenylate-binding protein 1 (Homo sapiens, UniProt P11940); experiment: blockers of PABP interaction with poly(A) – biochemical, fluorescence polarization, […] (AID 2014)
T8 sequence (P11940 whole entry): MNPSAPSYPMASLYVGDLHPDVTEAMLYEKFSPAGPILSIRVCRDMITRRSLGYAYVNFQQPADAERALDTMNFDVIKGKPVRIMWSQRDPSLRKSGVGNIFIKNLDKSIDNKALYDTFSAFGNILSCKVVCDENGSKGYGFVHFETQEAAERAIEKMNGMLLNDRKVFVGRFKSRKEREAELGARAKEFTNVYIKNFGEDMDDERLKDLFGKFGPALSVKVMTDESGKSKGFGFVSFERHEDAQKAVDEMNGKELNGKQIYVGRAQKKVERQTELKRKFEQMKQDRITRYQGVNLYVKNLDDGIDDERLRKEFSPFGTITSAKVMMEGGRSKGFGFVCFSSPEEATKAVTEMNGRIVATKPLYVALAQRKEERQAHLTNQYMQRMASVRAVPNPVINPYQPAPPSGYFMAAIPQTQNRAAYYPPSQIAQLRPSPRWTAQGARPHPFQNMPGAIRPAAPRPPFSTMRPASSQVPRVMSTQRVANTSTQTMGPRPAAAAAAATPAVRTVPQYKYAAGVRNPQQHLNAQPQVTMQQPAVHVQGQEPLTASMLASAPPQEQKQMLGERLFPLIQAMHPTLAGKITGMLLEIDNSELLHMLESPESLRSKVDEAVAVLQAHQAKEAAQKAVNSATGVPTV

[12] = biological target: T7, Eukaryotic translation initiation factor 4H; experiment: inhibitors of translation initiation factor eIF4H – SAR follow-up (AID 435011); assay type: functional
[13] = biological target: T8, Polyadenylate-binding protein 1; experiment: PABP inhibition in translation initiation, SAR follow-up (AID 435018); assay type: functional

EC50 [1]: 134 µM (active) | EC50 [2]: 32.2 µM (active) | IC50 [3]: > 100 µM (inactive) | EC50 [4]: > 100 µM (inactive) | EC50 [5]: 9.16 µM (active) | EC50 [6]: 9.62 µM (active) | EC50 [7]: 11.2 µM (active)
Compound: O=C(NNC(=S)NC(=O)c1ccccc1[N+](=O)[O-])c1ccccc1O

Compound: COC(=O)C(O)(c1ccc(N(C)C(=O)c2ccc(Cl)c(Cl)c2)cc1)C(F)(F)F (stereo not drawn)
IC50 [8]: > 14.6 µM (not active) | IC50 [9]: 15 µM (not active)

Compound: Cc1ccc(OC(C)C(=O)Nc2ccc3c(c2)n(C)c(=O)n3C)c(C)c1 (stereo not drawn)
IC50 [10]: > 100 µM (inactive) | IC50 [11]: 16.2 µM (active) | IC50 [12]: 35 µM (active) | IC50 [13]: 4.39 µM (active)
